Measurements from US6608043B1, “Remedies for joint diseases” (Takata Seiyaku Co., Ltd., priority 1999, dated 2003).

Legend:
[1] = system: synovial cells (TASC) from traumatic arthritis (TA) patients; experiment: Synovial cell proliferation inhibition (MTT method), TASC; assay type: cell-based, human; conditions: MTT on days 4, 8 and 12, HA/Zn and Na-HA 10-300 μg/ml, Zn at 1/10 of these, vs non-drug addition group
Method: (§1) The effects of the complex of hyaluronic acid and zinc (HA/Zn) of the present invention, and the effects of sodium hyaluronate (Na-HA) and zinc (Zn) as comparison controls were tested on synovial cells (RASC) from rheumatoid arthritis (RA) patients, synovial cells (OASC) from osteoarthritis (OA) patients, and synovial cells (TASC) from traumatic arthritis (TA) patients.
(§2) The test substances used consisted of HA/Zn (Lot No. A65242, 1% solution, Gedeon-Richter, Ltd.), sodium hyaluronate (Na-HA, Lot No. KK4001, Q.P. Corp.), and zinc chloride (Zn, Lot No. ESH1413, Wako Pure Chemical Ind., Ltd.). Quantitative values of the contents of hyaluronic acid and zinc contained in the above-mentioned HA/Zn solution (specific gravity; d^2020=1.0134) were determined in advance. Since the amount of hyaluronic acid was 99% (105.0% when calculated as sodium hyaluronate) and the amount of zinc was 1.07 mg/ml when the above-mentioned 1% is assigned a value of 100, the weight ratio of hyaluronic acid to zinc in said HA/Zn was considered to be 10:1 (Na-HA:Zn). The test substances were tested at concentrations of 10 μg/ml, 30 μg/ml, 100 μg/ml, 150 μg/ml, 200 μg/ml, 250 μg/ml and 300 μg/ml for HA/Zn, the same concentrations as HA/Zn for Na-HA, and at 1/10 the concentrations of HA/Zn for Zn.
(§3) Synovial membrane tissue was sampled from the knee joint of rheumatoid arthritis (RA) patients (5 cases, 65.6±10.6 years old) and osteoarthritis (OA) patients (6 cases, 73.4±8.9 years old) during artificial joint replacement surgery, and from the knee joint of traumatic arthritis (TA) patients (6 cases, 25.6±6.7 years old) during arthroscopic surgery. […]
(§4) The synovial cells (SC) were inoculated into a microplate (96 wells, Iwaki) at a concentration of 3.55×10^3 cells/0.1 ml/well (1×10^4 cells/cm^2), and pre-cultured for 2 days at 37° C. in a vapor phase consisting of 5% CO2 and 95% air. […] The results were expressed with the optical absorbance that indicated a positive correlation with the number of cells. […]

[2] = system: synovial cells (RASC) from rheumatoid arthritis (RA) patients; experiment: Synovial cell proliferation inhibition (MTT method), RASC; assay type: cell-based, human; conditions: MTT on days 4, 8 and 12, HA/Zn and Na-HA 10-300 μg/ml, Zn at 1/10 of these, vs non-drug addition group
Method: as §1, §2, §3, §4

[3] = system: synovial cells (OASC) from osteoarthritis (OA) patients; experiment: Synovial cell proliferation inhibition (MTT method), OASC; assay type: cell-based, human; conditions: MTT on days 4, 8 and 12, HA/Zn and Na-HA 10-300 μg/ml, Zn at 1/10 of these, vs non-drug addition group
Method: as §1, §2, §3, §4

[4] = system: matrix metalloproteinase MMP-9; experiment: Suppression of MMP-9 in synovial cell culture supernatant (EIA); assay type: cell-based, human; conditions: for production of MMP-9 relative to control (non-drug addition = 100%): culture supernatant day 8, HA/Zn and Na-HA 100 μg/ml, Zn 10 μg/ml, divided by MTT absorbance
Method: Synovial cells were inoculated into culture dishes (diameter: 35 mm, Iwaki) to a concentration of 10×10^4 cells/2 ml/dish (1×10^4 cells/cm^2), and pre-cultured for 2 days at 37° C. in a vapor phase consisting of 5% CO2 and 95% air. Later, the media were replaced with media containing each drug, and the culture supernatants were sampled on day 8 of culturing under the same conditions followed by storage at −80° C. until measurement. The added concentrations of HA/Zn and Na-HA were 100 μg/ml (final concentration), while the concentration of Zn was 10 μg/ml (final concentration). The amount of matrix metalloproteinase MMP-9 in the supernatant was measured using EIA (Enzyme Immunoassay). In order to examine the results calculated as concentration in the supernatant per cell, the results were converted to values divided by the optical absorbance value of synovial cells by MTT at that time. In addition, this value was further expressed as a relative value to the control of the individual value of each drug addition group while assigning the control (non-drug addition group) a value of 100%.

[5] = Systemic toxicity after subcutaneous administration, mice; assay type: in vivo; conditions: physically allowed maximum dose 200 mg/kg
Method: (§5) Administration methods normally performed for pharmaceuticals can be used for the hyaluronic acid/zinc complex of the present invention. Namely, the above-mentioned complex can be administered orally or parenterally, and administration by injection is particularly preferable. The effective dose of the hyaluronic acid/zinc complex of the present invention is 0.01 mg to 1 mg, and preferably 0.03 mg to 0.5 mg per joint per administration per person. […] The agent for treatment of arthritic disease and matrix metalloproteinase MMP-9 suppresser of the present invention can contain 0.001% to 1%, and preferably 0.01% to 0.5%, of the hyaluronic acid/zinc complex of the present invention with a routinely used pharmaceutical carrier. Examples of routinely used pharmaceutical carriers include bases typically used in therapeutic applications such as chitosan, starch, pectin, HPMC and sodium alginate, binders such as tragacanth gum, gum arabic, cornstarch and gelatin, vehicles such as crystalline cellulose and mannitol, disintegrating agents such as cornstarch, α-starch and alginic acid, lubricants such as magnesium stearate, sweeteners such as sucrose, lactose and saccharin, flavorings such as peppermint, mint and cherry, and antiseptics.

[6] = Systemic toxicity after subcutaneous administration, rats; assay type: in vivo; conditions: physically allowed maximum dose 200 mg/kg
Method: as §5

Compound	proliferation of synovial cells (inhibition) [1]	proliferation of synovial cells (inhibition) [2]	proliferation of synovial cells (inhibition) [3]	production of MMP-9 relative to control (non-drug addition = 100%) [4] [%]	symptoms of systemic toxicity [5]	symptoms of systemic toxicity [6]	concentration at which MMP-9 is suppressed ([4]; synovial cells originating in rheumatoid arthritis, in vitro) [µg/mL]
[Cl-].[Cl-].[Zn+2] [Zn, zinc chloride]	significant inhibition	significant inhibition	significant inhibition	50	–	–	–
complex of hyaluronic acid and zinc [HA/Zn]	significantly inhibited dependent on the amount added	significantly inhibited dependent on the amount added	significantly inhibited dependent on the amount added	0	not observed to cause symptoms of systemic toxicity	not observed to cause symptoms of systemic toxicity	≤ 100
sodium hyaluronate [Na-HA]	not significantly inhibited	not significantly inhibited	not significantly inhibited	100	–	–	–
